Measured values: patent US20040052837A1, “Lipid conjugated anti-cancer drugs and methods of use thereof” (priority 2002, published 2004)
Like-named read-outs stand apart in the source and are kept apart here.

Experiments:
T27A cells = test: Inhibition of T27A cell proliferation by [3H]thymidine incorporation; type: cell-based, murine
Protocol: The murine non-T non-B leukemia cell line T27A (ATCC, Rockville, Md., USA) was cultured in RPMI 1640 medium (Gibco/BRI, Gaithersburg, Md.) supplemented with 25 mM HEPES buffer, 2 mM glutamine, 100 U penicillin/ml, 100 μg streptomycin/ ml and 2 or 10% bovine calf serum (Hyclone, Logan, Utah) in a humidified 5% CO2 atmosphere. Cell viability was determined by Trypan blue exclusion.
DHA (NuChek Prep, Elysan, Minn.) was introduced into RPMI 1640 medium supplemented with 1% (w/v) fatty acid-free bovine serum albumin (Sigma) as described by Spector and Hoak (33) with modifications we have reported (34).
Liposomes were prepared fresh for each use. The bulk of the lipids was 18:0, 18:1 PC (up to 90 mol %), with 10 mol % 18:0, 18:1 PE added to augment fusion between liposomes and the cell-surface membrane. The control contained no additional lipids; the experimental groups contained up to an additional 15 mol % 18:0, 22:6 PC or up to 0.43 mol % 18:0, MTX-PC or 22:6, MTX-PC. The solvent was evaporated under nitrogen and the lipids dried under vacuum for 2 h. The lipids were rehydrated in RPMI medium, and multilamellar vesicles were prepared by vortexing 1 ml of lipids at a concentration of 2 mg/ml. Liposomes (small unilamellar vesicles) were created by sonicating the multilamellar vesicles for 15 min on ice under nitrogen with a Heat Systems W380 disruptor (Farmingdale, N.Y.) set at 1 s cycle time, 60% duty and 3-7% output. Liposome suspensions were centrifuged at low speed (3700 r.p.m.; 2300 g) to remove particulate material and sterile filtered through a 0.2-μm filter. An aliquot of each liposome preparation was tested by thin-layer chromatography to assure that hydrolysis had not occurred.
All concentrations given are final concentrations in the wells. […] Control liposomes were made from 1 mM 18:0, 18:1 PC/ 18:0, 18:1 PE (9/1, mol:mol). After 6 h of incubation, 0.5 μCi/well of [^3H]thymidine (2 Ci/mmol; Amersham, Arlington Heights, Ill.) was added and the incubation continued for an additional 18 h. Cells were then harvested onto glass fiber filters (PHD Cell Harvester; Cambridge Technology, Watertown, Mass.) and the radioactivity present in DNA on the filters was measured by liquid scintillation counting.
The IC50 for each agent alone was determined by non-linear curve fitting with the software package SigmaPlot (SPSS, Chicago, Ill.).

[1] = previous study (26); cited from earlier work
[2] = system: several different cell types; conditions: variety of assays in vitro (11, 37-39); cited from earlier work
[3] = (35); cited from earlier work
human neoplastic cells = conditions: (1); cited from earlier work
[4] = lipid included in liposomes of 1 mM 18:0,18:1 PC/18:0,18:1 PE (9:1), 24 h, read-out: IC50, inhibition of proliferation

## CCCCCCCCCCCCCCCCCC(=O)OC[C@H](COP(=O)([O-])OCC[N+](C)(C)C)OC(=O)CC[C@H](NC(=O)c1ccc(N(C)Cc2cnc3nc(N)nc(N)c3n2)cc1)C(=O)O [18:0, MTXγ-PC]
T27A cells; [4]
  IC50: 2110 nM

## CC/C=C\C/C=C\C/C=C\C/C=C\C/C=C\C/C=C\CCC(=O)OC[C@H](COP(=O)([O-])OCC[N+](C)(C)C)OC(=O)CC/C=C\C/C=C\C/C=C\C/C=C\C/C=C\C/C=C\CC [22:6, 22:6 PC, 1,2-didocosahexaenoyl-sn-glycero-3-phosphocholine]
[1]
  direct cytotoxicity: comparable to 18:0, 22:6 PC

## CC/C=C\C/C=C\C/C=C\C/C=C\C/C=C\C/C=C\CCC(=O)OC[C@H](COP(=O)([O-])OCC[N+](C)(C)C)OC(=O)CC[C@H](NC(=O)c1ccc(N(C)Cc2cnc3nc(N)nc(N)c3n2)cc1)C(=O)O [22:6, MTXγ-PC]
T27A cells; [4]
  IC50: 1190 nM
T27A cells; liposomes with up to 0.43 mol % (4.2 μM) MTXγ-PC, 24 h
  potency as inhibitor of cell proliferation relative to 18:0, MTXγ-PC: more potent inhibitor of cell proliferation than 18:0, MTXγ-PC
T27A cells; low concentrations, below 1.5 μM, in liposomes
  inhibition relative to 18:0, MTXγ-PC: significantly more inhibitory than 18:0, MTXγ-PC

## CC/C=C\C/C=C\C/C=C\C/C=C\C/C=C\C/C=C\CCC(=O)O [DHA, docosahexaenoic acid]
T27A cells; 220 μM DHA alone
  % of maximal proliferation: 57%
T27A cells; Mus musculus, [DHA] 25 μM
  predicted % inhibition at 25 µM: 4.9%
T27A cells; Mus musculus, [DHA] 50 μM
  predicted % inhibition at 50 µM: 9.8%
T27A cells; Mus musculus, [DHA] 100 μM
  predicted % inhibition at 100 µM: 19.7%
T27A cells; Mus musculus, [DHA] 150 μM
  predicted % inhibition at 150 µM: 29.5%
T27A cells; Mus musculus, [DHA] 200 μM
  predicted % inhibition at 200 µM: 39.3%
T27A cells; Mus musculus, albumin-bound DHA not conjugated to phospholipids, 24 h, 2% serum, read-out: IC50, inhibition of [3H]thymidine incorporation
  IC50: 211000 nM
T27A cells; albumin versus ethanol delivery
  IC50 with albumin delivery relative to IC50 for DHA delivered in ethanol: about 5 times

## CN(Cc1cnc2nc(N)nc(N)c2n1)c1ccc(C(=O)N[C@@H](CCC(=O)O)C(=O)O)cc1 [MTX, methotrexate]
T27A cells; 30 nM MTX alone
  % of maximal proliferation: 52%
T27A cells; Mus musculus, 24 h, read-out: IC50 (dose for 50% inhibition of proliferation)
  IC50: 30.6 nM
T27A cells; [MTX] 2.7 nm
  Inhibition (Predicted; %): 4.3%
T27A cells; [MTX] 9.5 nm
  Inhibition (Predicted; %): 15.2%
T27A cells; [MTX] 16.5 nm
  Inhibition (Predicted; %): 26.3%
T27A cells; [MTX] 23.3 nm
  Inhibition (Predicted; %): 37.2%
T27A cells; [MTX] 26.7 nm
  Inhibition (Predicted; %): 42.6%
[2]
  range of inhibitory doses reported: 15 to 240 nM
[3]
  pKa of α-carboxyl group: 3.35
Human neoplastic cells
  level at which toxic: 20 nM
